Measurements reported in ChEMBL document CHEMBL1143100, “Phenylethynyl-pyrrolo[1,2-a]pyrazine: a new potent and selective tool in the mGluR5 antagonists arena” (Bioorg Med Chem Lett, 2008).
In brackets after ≈: the same amount, converted by molar mass.

tested on: not listed separately; assay: Solubility at pH 7.4; type: physicochemical; settings: buffer

Structure (SMILES) | solubility
Cc1cccc(C#Cc2ccccc2)n1 | 70 µg/mL (≈ 362 µM)

target: Metabotropic glutamate receptor 5 (Homo sapiens, UniProt P41594); assay: Antagonist activity at human mGluR5 expressed in CHO cells assessed as increase in intracellular calcium level by FLIPR; type: functional, cell-based; settings: not given
Sequence (P41594 whole entry): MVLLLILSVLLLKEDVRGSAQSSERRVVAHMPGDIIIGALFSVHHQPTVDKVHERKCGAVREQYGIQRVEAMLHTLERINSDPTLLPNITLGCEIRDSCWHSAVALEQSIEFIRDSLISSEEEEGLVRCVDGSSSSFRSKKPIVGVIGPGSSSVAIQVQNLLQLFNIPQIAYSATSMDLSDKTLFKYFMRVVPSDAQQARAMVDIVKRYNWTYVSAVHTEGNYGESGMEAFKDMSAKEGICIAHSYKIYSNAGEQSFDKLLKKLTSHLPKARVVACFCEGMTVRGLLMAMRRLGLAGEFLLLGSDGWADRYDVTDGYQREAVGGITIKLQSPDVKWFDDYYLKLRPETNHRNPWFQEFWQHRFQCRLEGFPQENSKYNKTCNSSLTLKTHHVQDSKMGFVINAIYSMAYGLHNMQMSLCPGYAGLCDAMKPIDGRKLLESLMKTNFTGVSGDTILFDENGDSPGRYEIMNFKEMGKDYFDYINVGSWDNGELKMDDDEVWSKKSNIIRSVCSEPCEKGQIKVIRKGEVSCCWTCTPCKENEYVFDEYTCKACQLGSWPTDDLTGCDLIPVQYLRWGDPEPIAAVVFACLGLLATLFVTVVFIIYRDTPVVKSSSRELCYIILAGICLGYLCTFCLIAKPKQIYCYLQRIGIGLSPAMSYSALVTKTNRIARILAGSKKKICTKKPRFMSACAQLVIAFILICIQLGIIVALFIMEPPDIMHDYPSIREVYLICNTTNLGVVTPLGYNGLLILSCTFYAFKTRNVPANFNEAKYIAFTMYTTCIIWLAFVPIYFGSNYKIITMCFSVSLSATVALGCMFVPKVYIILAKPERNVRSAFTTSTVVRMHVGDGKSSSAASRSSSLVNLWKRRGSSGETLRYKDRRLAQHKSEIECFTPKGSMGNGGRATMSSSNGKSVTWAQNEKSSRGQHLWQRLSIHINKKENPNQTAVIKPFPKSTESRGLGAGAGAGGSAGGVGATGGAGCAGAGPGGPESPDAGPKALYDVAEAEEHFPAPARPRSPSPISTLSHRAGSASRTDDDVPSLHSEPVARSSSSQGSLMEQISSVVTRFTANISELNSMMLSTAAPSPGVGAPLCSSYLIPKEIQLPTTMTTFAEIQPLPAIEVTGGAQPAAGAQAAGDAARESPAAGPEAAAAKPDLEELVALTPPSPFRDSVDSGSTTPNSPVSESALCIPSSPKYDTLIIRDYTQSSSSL

Structure (SMILES) | IC50
Cc1cn2cc(C(F)(F)F)cc2c(C#Cc2cccc(C(=O)O)c2)n1 | > 12600 nM
Cc1cn2cc(C(F)(F)F)cc2c(C#Cc2ccc(NS(C)(=O)=O)cc2)n1 | > 15800 nM
Cc1cn2cc(C(F)(F)F)cc2c(C#Cc2cccc(-c3ccoc3)c2)n1 | 10000 nM
Cc1cn2cc(C(F)(F)F)cc2c(C#Cc2cccc(-c3c(C)noc3C)c2)n1 | > 12600 nM
Cc1cn2cc(C(=O)N3CCCCC3C)cc2c(C#Cc2ccsc2)n1 (configuration not stated) | 100 nM
Cc1cn2cc(C(=O)N3CCCC3C)cc2c(C#Cc2ccsc2)n1 (configuration not stated) | 39.8 nM
Cc1cc2c(C#Cc3ccc(C(F)(F)F)cc3)nc(C)cn2c1 | > 15800 nM
Cc1cn2cc(C(N)=O)cc2c(C#Cc2ccccc2F)n1 | 501 nM
Cc1cn2cccc2c(C#Cc2ccc(Br)cc2)n1 | > 12600 nM
Cc1cn2cc(C#N)cc2c(C#Cc2cccc(F)c2)n1 | 0.794 nM
Cc1cn2cc(C(F)(F)F)cc2c(C#Cc2cccc(Br)c2)n1 | 25.1 nM
Cc1cn2cc(C(F)(F)F)cc2c(C#Cc2cccc(-c3ccsc3)c2)n1 | 5010 nM
Cc1cc2c(C#Cc3cccnc3)nc(C)cn2c1 | 2000 nM
Cc1cn2cc(C(=O)N3CCN(C)CC3)cc2c(C#Cc2cccc(C(F)(F)F)c2)n1 | 251 nM
Cc1cc2c(C#Cc3ccccc3)nc(C)cn2c1 | 50.1 nM
Cc1cccc(C#Cc2nc(C)cn3cccc23)c1 | 0.398 nM
Cc1cn2cc(C(F)(F)F)cc2c(C#Cc2cccnc2)n1 | 501 nM
Cc1cn2cc(C(F)(F)F)cc2c(C#Cc2ccc(C#N)cc2)n1 | > 15800 nM
Cc1cn2cc(CN3CCNC(=O)C3)cc2c(C#Cc2ccccc2)n1 | 200 nM
Cc1cn2cc(C(=O)N3CCC(F)(F)C3)cc2c(C#Cc2ccsc2)n1 | 126 nM
CCOC(=O)c1cc2c(C#Cc3ccc(C#N)cc3)nc(C)cn2c1 | > 15800 nM
Cc1cn2cc(C(=O)N3CCN(C)CC3)cc2c(C#Cc2ccsc2)n1 | 158 nM
Cc1cn2cc(C(=O)N3CCCC3)cc2c(C#Cc2ccsc2)n1 | 20 nM
Cc1cn2cc(C(F)(F)F)cc2c(C#Cc2cccs2)n1 | 63.1 nM
Cc1cn2cc(C(F)(F)F)cc2c(C#Cc2ccc(C(F)(F)F)cc2)n1 | > 15800 nM
Cc1cn2cc(C(F)(F)F)cc2c(C#Cc2ccc(F)cc2F)n1 | > 15800 nM
